# From US20260071190A1, “SARS CORONAVIRUS 2 R[…] […] GENES, DERIVED FROM GH CLADE SARS CORONAVIRUS 2 OF KOREAN ISOLATE, AND THE PRODUCTION METHOD THEREFOR” (RpexBio, Inc., priority 2022, published 2026)
# Test system: rSARS-COV-2/YS006_Nluc P2 virus (YS006_spike)
# Assay type: cell-based, SARS coronavirus 2
smiles,measurement,setting,value
CC(C)(C)[C@H](NC(=O)C(F)(F)F)C(=O)N1C[C@H]2[C@@H]([C@H]1C(=O)N[C@H](C#N)C[C@@H]1CCNC1=O)C2(C)C [PF-07321332],antiviral activity against YS006_spike reporter virus,,high antiviral activity
same,inhibitory effect compared among cell lines,"A549_ACE2 cells versus Calu-3 and Vero E6, FIG. 6B",strongest inhibitory effect
